Measurements: article PMC9134315, “Systemic Administration of a Brain Permeable Cdk5 Inhibitor Alters Neurobehavior” (Frontiers in Pharmacology, 2022)

Tests used:
Cdk5 [1] = target: T1, Cdk5 (Mus musculus, UniProt P49615); experiment: In vivo Cdk5 inhibition after I.V. injection, immunoblot of striatal phospho-Ser549 synapsin I; conditions: 50 mg/kg I.V., striatal lysates, various time points, data not shown
T1 construct: from tissue; host or cells: striatum of wild-type C57BL/6 mice (acute slices, or lysates after I.V. dosing)
T1 sequence (P49615 whole entry): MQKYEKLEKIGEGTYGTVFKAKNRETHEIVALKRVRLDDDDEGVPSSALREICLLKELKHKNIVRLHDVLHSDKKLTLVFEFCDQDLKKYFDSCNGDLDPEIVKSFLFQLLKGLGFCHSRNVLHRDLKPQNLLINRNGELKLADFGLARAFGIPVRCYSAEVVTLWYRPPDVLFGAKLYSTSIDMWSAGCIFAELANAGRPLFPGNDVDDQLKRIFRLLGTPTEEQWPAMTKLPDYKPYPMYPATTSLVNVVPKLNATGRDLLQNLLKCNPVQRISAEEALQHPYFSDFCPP
T1 sequence (P61809 2-307 partner limits assumed): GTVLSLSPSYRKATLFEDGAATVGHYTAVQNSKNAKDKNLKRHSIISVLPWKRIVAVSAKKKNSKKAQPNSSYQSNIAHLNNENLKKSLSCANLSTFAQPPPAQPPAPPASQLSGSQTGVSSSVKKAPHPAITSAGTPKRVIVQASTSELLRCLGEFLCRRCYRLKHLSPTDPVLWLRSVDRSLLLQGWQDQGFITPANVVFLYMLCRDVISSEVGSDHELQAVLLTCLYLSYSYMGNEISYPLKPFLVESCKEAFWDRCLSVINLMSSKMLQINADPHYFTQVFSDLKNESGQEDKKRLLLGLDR
Description: The wild-type group housed male C57BL/6 mice 10–12 weeks of age were used for all in vivo, ex vivo, and behavioral studies. This age range was selected to be consistent with previous studies of conditional Cdk5 knockout mice ([Plattner et al., 2015]). 25–106 was administered in a 20-fold dose range intravenously (I.V.) at 10, 50, 100, and 200 mg/kg for pharmacokinetic studies. This delivery mode was used as I.V. injections to avoid first-pass drug metabolism observed using other injection methods ([Pond and Tozer, 1984]). […] All animal experiments were performed under approved protocols by the University of Alabama at Birmingham (UAB) Institutional Animal Care and Use Committees and in accordance with the guidelines of the Animal Welfare Act and the Guide for the Care and Use of Laboratory Animals.
(§1) Immunoblotting was performed as previously described ([Umfress et al., 2021]). Mouse brains were rapidly dissected in an ice-cold solution of 50 mM NaF/PBS. The regions of interest were further dissected out and rapidly snap-frozen in dry ice. The frozen tissue was homogenized in boiling lysis buffer (1% SDS, 50 mM NaF) and sonicated with several three to four pulses at 40 dB. The samples were subsequently denatured at 90°C for 5 min. Protein concentration was determined by the BCA assay, and homogenates were diluted in 4x sample buffer, separated by SDS-PAGE, and transferred to 0.45-µm nitrocellulose membranes, blocked with 5% milk solution (1 h), and probed with primary antibodies (overnight). The following antibodies were used in the study: phospho-Ser549 synapsin I (Phosphosolutions), total synapsin I (Phosphosolutions), actin (Invitrogen), phospho-Ser1116 (in-house) ([Plattner et al., 2014]), and total NR2B (Phosphosolutions), phospho-Thr75, and total DARPP-32 (Cell Signaling Technology). Visualization was performed using the Licor CLX membrane scanner and Licor secondary antibodies.
Each of the four compounds tested in brain slices was further screened for their ability to penetrate the blood–brain barrier (BBB) and inhibit Cdk5-dependent activity in vivo. For these studies, cohorts of mice were treated with each compound via I.V. injection (50 mg/kg), and brain striatal lysates from various time points were subjected to quantitative immunoblot analysis for phosho-Ser549 Synapsin I levels. Three compounds, 20–107, 20–132, and 20–143, had no effect on Cdk5 activity compared to that of vehicle alone (data not shown). […] Moreover, this effect persisted even 24 h after dosing.

Cdk5 [2] = target: T1, Cdk5; experiment: Ex vivo acute striatal brain slice pharmacology, immunoblot of phospho-Thr75 DARPP-32 and phospho-Ser1116 NR2B; assay type: cell-based; conditions: acute striatal slices, 1 h treatment, 0-10 µM; read-out: IC50, Cdk5-dependent phosphorylation of DARPP-32 and NR2B
Description: Brain slice pharmacology was performed as described ([Nishi et al., 2000]). Briefly, the mice were decapitated, and the brains were rapidly dissected and submerged in ice-cold normal Kreb’s solution (124 mM NaCl, 4 mM KCl, 26 mM NaHCO3, 1.25 mM KH2PO4, 1.5 mM MgSO4, 10 mM D-glucose, and 1.5 mM CaCl2). The brains were subsequently sectioned into normal Kreb’s solution at 350 µ thickness. The brain slices were transferred to a 30°C solution of normal Kreb’s containing 10 µM deaminase for a 1-h recovery period. The sections were then incubated in normal Kreb’s solution with and without the indicated compounds across the dose and time ranges indicated. The sections were rapidly snap-frozen in dry ice to terminate treatment regimes.
as §1
In order to assess the functional inhibition of Cdk5 in intact brain tissue by the four compounds summarized in Figure 1, acutely prepared striatal slices were treated in a dose-dependent manner (0, 0.25, 0.5, 1, 5, and 10 µM) with each inhibitor for 1 h, and Cdk5 activity was assessed via immunoblotting the phosphorylation of established Cdk5 sites, phospho-Thr75 DARPP-32 and phospho-Ser1116 NR2B ([Bibb et al., 1999]; [Plattner et al., 2014]).

[3] = ref Vita et al., 2005; cited from earlier work

SMILES | effect on Cdk5 activity (phospho-Ser549 synapsin I) compared to vehicle (Cdk5 [1]) | IC50 (Cdk5 [2]) [nM] | distribution into the brain [3] | half-life and active metabolites [3]
O=C(Cc1ccc2c(c1)OCCO2)Nc1cc(C2CCC2)[nH]n1 [25–107] | no effect | 500 to 1000 |  | 
CC[C@H](CO)Nc1nc(NCc2ccccc2)c2ncn(C(C)C)c2n1 [roscovitine] |  |  | could distribute into the brain | rapid half-life with no detectable active metabolites
COc1ccc(CC(=O)Nc2cc(C3CCC3)[nH]n2)cc1OC [25–143] | no effect | 500 to 1000 |  | 
O=C(C/C=C/c1ccccc1)Nc1cc(C2CCC2)[nH]n1 [25–132] | no effect | 500 to 1000 |  | 
